From US12448394B2, “Heterocyclic pyrazole derivatives as type III receptor tyrosine kinase inhibitors” (DEVELOPMENT CENTER FOR BIOTECHNOLOGY, priority 2019, dated 2025)
Positions count from the first letter of the chain named.

Assays:
PDGFRα kinase = target: T1, PDGFRα kinase (Homo sapiens, UniProt P16234); experiment: PDGFRα kinase assay (AlphaScreen); assay type: biochemical; settings: read-out: Ranking of IC50 values, PDGFRα
T1 construct: purchased SignalChem
Method: (§1) Inhibition of PDGFRα kinase activity by a test compound disclosed herein was estimated by AlphaScreen (PerkinElmer). Standard assay conditions were 1.5 ng of recombinant PDGFRα kinase (SignalChem) with 6 ng Biotin-conjugated Poly-(Glu 4: Tyr 1) (Cisbio) in the assay buffer (10 μM ATP, 10 mM MOPs, pH 7.0, 0.21 mM EDTA, 0.5% glycerol, 1 mg/mL BSA, 0.01% 2-mercaptoethanol, 0.001% Brij35, 10 mM MgCl2) in a final volume of 25 μL. Reactions were incubated at 30° C. for 30 min and stopped by adding 5 g L of 50 mM EDTA. Analysis of resulting product using an AlphaScreen kit and counted with Enspire Alpha (PerkinElmer). […] The IC50 values of inhibitors were determined after carrying out assays with each compound at serially diluted concentrations in duplication. The results were analyzed using linear regression software (GraphPad Prism 5; GraphPad Software Inc.)

FLT3 kinase = target: T2, FLT3 kinase (Homo sapiens, UniProt P36888); experiment: FLT3 kinase assay (AlphaScreen); assay type: biochemical; settings: read-out: Ranking of IC50 values, FLT3
T2 construct: purchased SignalChem
T2 sequence (P36888 27-993): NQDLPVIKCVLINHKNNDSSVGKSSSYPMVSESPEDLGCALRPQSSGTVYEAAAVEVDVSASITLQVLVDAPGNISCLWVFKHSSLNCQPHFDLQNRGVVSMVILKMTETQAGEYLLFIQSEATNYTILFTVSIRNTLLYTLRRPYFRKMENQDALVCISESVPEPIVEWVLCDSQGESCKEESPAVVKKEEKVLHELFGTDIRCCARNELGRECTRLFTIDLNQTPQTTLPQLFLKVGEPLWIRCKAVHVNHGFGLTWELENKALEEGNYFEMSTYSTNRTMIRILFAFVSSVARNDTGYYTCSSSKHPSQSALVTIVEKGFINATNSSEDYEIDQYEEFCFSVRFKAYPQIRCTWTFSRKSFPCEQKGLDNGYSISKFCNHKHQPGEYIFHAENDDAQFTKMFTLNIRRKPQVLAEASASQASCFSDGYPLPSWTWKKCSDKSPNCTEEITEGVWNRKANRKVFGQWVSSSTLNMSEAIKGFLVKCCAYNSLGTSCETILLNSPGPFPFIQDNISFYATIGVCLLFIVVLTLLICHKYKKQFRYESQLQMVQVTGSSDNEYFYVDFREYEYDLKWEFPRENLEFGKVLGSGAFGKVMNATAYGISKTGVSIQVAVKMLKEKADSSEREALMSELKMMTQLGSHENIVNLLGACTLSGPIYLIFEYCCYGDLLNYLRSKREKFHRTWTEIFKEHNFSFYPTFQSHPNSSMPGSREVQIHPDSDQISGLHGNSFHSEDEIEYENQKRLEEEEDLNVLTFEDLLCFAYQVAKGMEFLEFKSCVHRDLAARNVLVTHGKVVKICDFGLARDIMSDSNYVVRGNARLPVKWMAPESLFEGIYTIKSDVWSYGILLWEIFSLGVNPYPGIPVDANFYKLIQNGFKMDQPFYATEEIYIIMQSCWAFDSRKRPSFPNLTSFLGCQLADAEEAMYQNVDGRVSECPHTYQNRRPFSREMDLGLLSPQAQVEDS
Method: Inhibition of FLT3 kinase activity by a test compound disclosed herein was estimated by AlphaScreen (PerkinElmer, […]). Standard assay conditions were 1.5 ng of recombinant FLT3 kinase (SignalChem, Richmond, BC, Canada) with 6 ng Biotin-conjugated Poly-(Glu 4: Tyr 1) (Cisbio, Bedford, MA, USA) in the assay buffer (10 μM ATP, 10 mM MOPs, pH7.0, 0.21 mM EDTA, 0.5% glycerol, 1 mg/mL BSA, 0.01% 2-mercaptoethanol, 0.001% Brij35, 10 mM MgCl2) in a final volume of 25 μL. Reactions were incubated at 30° C. for 30 min and stopped by adding 5 μL of 50 mM EDTA. Analysis of resulting product using an AlphaScreen kit and counted with Enspire Alpha (PerkinElmer, Waltham, MA, USA). […] The IC50 values of inhibitors were determined after carrying out assays with each compound at serially diluted concentrations in duplication. The results were analyzed using linear regression software (GraphPad Prism 5; GraphPad Software Inc.)

FLT3-D835Y mutant kinase = target: T3, FLT3-D835Y mutant kinase (Homo sapiens, UniProt P36888, D835Y); experiment: FLT3-D835Y mutant kinase assay (AlphaScreen); assay type: biochemical; settings: read-out: Ranking of IC50 values, FLT3-D835Y
T3 construct: purchased SignalChem
T3 sequence (P36888 27-993 D835Y): T2 sequence (P36888 27-993) with D809Y
Method: as §1, with “FLT3-D835Y mutant” for “PDGFRα”, “1” for “1.5”, “pH7.0,” for “pH 7.0,”, “μL” for “g L”

MET kinase = target: T4, MET kinase (Homo sapiens, UniProt P08581); experiment: MET kinase assay (AlphaScreen, counter screen); assay type: biochemical; settings: read-out: Ranking of IC50 values, MET
T4 construct: purchased SignalChem
Method: Because MET kinase belonged to Class VIII RTK family have one transmembrane a chain linked with one extracellular β chain which is different form Class III RTK family with 5 Immunoglobin-like extracellular domains. Standard assay conditions were 1 ng of recombinant MET kinase (SignalChem) with 3 ng Biotin-conjugated Poly-(Glu 4: Tyr 1) (Cisbio) in the assay buffer ([…], 10 mM MOPs, pH 7.0, 0.21 mM EDTA, 0.5% glycerol, 1 mg/mL BSA, 0.01% 2-mercaptoethanol, 0.001% Brij35, 10 mM MgCl2) in a final volume of 25 μL. Reactions were incubated at 30° C. for 45 min and stopped by adding 5 μL of 50 mM EDTA. Analysis of resulting product using an AlphaScreen kit and counted with Enspire Alpha (PerkinElmer). […] The IC50 values of inhibitors were determined after carrying out assays with each compound at serially diluted concentrations in duplication. The results were analyzed using linear regression software (GraphPad Prism 5; GraphPad Software Inc.)

[1] = system: experimental autoimmune encephalomyelitis (EAE); settings: mouse model for multiple sclerosis; cited from earlier work

T1 sequence (P16234 24-1089): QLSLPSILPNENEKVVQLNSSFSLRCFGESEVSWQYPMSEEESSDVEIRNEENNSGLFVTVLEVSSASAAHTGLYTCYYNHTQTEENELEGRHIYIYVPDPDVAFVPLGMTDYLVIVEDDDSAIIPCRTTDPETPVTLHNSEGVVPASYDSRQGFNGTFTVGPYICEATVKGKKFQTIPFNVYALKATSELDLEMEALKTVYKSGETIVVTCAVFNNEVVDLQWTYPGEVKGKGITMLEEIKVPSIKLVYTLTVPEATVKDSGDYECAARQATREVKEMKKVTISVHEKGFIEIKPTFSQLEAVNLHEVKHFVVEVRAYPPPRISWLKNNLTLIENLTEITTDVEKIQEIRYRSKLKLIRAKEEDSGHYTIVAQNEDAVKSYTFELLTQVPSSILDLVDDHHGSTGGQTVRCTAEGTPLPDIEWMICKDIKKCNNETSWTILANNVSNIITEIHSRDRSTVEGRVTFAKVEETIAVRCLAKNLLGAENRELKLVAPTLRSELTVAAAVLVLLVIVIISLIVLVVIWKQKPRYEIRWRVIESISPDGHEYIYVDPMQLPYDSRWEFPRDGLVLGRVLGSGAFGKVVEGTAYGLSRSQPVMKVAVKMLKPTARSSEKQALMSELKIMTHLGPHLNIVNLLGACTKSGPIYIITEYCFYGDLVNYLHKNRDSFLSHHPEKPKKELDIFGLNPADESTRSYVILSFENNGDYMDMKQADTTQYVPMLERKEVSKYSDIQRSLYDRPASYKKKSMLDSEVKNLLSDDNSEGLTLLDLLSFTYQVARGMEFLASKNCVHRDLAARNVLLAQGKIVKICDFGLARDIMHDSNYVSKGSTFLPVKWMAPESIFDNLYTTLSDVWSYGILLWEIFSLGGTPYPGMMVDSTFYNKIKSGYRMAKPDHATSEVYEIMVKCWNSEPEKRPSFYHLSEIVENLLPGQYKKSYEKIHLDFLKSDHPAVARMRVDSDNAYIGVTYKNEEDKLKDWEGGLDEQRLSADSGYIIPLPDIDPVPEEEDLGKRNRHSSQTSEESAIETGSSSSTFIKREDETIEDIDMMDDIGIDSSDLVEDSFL
T4 sequence (P08581 25-1390): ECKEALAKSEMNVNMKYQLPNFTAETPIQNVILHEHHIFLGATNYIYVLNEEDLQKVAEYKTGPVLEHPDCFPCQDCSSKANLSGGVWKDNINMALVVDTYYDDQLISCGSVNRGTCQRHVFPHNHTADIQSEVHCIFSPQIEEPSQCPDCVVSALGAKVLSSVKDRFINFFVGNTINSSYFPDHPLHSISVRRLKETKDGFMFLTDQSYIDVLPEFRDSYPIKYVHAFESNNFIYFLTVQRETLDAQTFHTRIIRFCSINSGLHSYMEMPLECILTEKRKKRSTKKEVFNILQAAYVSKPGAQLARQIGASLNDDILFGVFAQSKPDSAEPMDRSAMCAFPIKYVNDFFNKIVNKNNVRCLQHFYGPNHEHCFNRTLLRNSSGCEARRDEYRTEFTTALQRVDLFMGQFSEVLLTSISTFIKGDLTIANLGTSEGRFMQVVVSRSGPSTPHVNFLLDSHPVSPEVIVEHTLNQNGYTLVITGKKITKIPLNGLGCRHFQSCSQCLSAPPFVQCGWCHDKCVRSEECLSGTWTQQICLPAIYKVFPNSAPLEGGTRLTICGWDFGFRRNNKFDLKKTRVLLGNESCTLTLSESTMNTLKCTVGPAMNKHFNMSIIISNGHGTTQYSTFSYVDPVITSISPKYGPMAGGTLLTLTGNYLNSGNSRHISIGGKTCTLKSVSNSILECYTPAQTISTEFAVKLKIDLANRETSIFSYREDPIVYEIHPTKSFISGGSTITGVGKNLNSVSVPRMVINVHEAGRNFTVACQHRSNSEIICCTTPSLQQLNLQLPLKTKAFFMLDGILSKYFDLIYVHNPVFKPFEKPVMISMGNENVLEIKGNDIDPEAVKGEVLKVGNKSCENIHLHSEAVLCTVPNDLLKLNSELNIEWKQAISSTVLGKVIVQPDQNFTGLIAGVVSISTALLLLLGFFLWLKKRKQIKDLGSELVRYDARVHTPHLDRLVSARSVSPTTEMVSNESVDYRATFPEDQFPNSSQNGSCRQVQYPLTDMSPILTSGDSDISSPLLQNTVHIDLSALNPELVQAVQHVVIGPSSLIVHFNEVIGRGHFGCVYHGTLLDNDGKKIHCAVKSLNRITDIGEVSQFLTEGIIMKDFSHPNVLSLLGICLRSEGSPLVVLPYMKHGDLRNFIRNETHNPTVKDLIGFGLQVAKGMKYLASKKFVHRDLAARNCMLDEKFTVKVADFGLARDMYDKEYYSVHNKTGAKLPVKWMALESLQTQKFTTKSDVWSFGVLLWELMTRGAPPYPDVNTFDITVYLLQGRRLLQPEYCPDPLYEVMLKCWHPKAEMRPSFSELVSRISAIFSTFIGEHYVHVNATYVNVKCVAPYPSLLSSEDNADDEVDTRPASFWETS

SMILES | IC50 (PDGFRα kinase) [nM] | IC50 (FLT3 kinase) [nM] | IC50 (FLT3-D835Y mutant kinase) [nM] | IC50 (MET kinase) [nM] | reducing myelin loss in EAE [1]
Brc1n[nH]c2cc(-c3n[nH]c4c3Cc3sc(-c5ccc(CN6CCOCC6)cc5)cc3-4)ccc12 [Compound 68, 4-(4-(3-(3-bromo-1H-indazol-6-yl)-1,4-dihydro-thieno[2′,3′:4,5]cyclopenta [1,2-c]pyrazol-6-yl)benzyl)morpholine] | 1 to 10 | 1 to 10 | 1 to 10 | > 1000 | –
C[C@]12O[C@H](C[C@]1(O)CO)n1c3ccccc3c3c4c(c5c6ccccc6n2c5c31)CNC4=O [CEP-701] | – | – | – | – | effective in reducing myelin loss
